From ChEMBL document CHEMBL3885881, “DrugMatrix”

Organism: Rattus norvegicus
Assay: DrugMatrix - Regimen: Daily Repeat
Type: toxicity, organism-based, Sprague-Dawley
Parameters: regimen Daily Repeat, gender Male, age 6-8 weeks
Settings: in vivo, po, route oral GAVAGE, vehicle 100 % WATER; for ABSOLUTE BASOPHIL / ABSOLUTE EOSINOPHIL / ABSOLUTE LYMPHOCYTE / ABSOLUTE MONOCYTE / ABSOLUTE SEGMENTED NEUTROPHIL / BASOPHIL / EOSINOPHIL / ERYTHROCYTE COUNT / HEMATOCRIT / HEMOGLOBIN / LEUKOCYTE COUNT / LYMPHOCYTE / MEAN CORPUSCULAR HEMOGLOBIN / MEAN CORPUSCULAR HEMOGLOBIN CONCENTRATION / MEAN CORPUSCULAR VOLUME / MONOCYTE / NEUTROPHIL / NUCLEATED RED BLOOD CELLS / PLATELET COUNT: tissue Blood; for ALANINE AMINOTRANSFERASE / ALKALINE PHOSPHATASE / ASPARTATE AMINOTRANSFERASE / BLOOD UREA NITROGEN / CARBON DIOXIDE / CHLORIDE / CHOLESTEROL / CREATINE PHOSPHOKINASE / CREATININE / GLUCOSE / LACTATE DEHYDROGENASE / LIPASE / PHOSPHORUS / POTASSIUM / SODIUM / TOTAL BILIRUBIN / TOTAL PROTEIN / URIC ACID: tissue Plasma
[1] = 0 mg/kg, 72 h, dose level Control, time 3 day
[2] = 0 mg/kg, 120 h, dose level Control, time 5 day
[3] = 10 mg/kg, 72 h, dose level Low, time 3 day
[4] = 10 mg/kg, 120 h, dose level Low, time 5 day

Compound: Cn1c(=O)c2[nH]cnc2n(C)c1=O.O [THEOPHYLLINE]
- ABSOLUTE BASOPHIL [1]: 0 CELLS/uL
- ABSOLUTE EOSINOPHIL [1]: 168.33 CELLS/uL
- ABSOLUTE LYMPHOCYTE [1]: 13654.17 CELLS/uL
- ABSOLUTE MONOCYTE [1]: 121 CELLS/uL
- ABSOLUTE SEGMENTED NEUTROPHIL [1]: 1223.17 CELLS/uL
- BASOPHIL [1]: 0%
- EOSINOPHIL [1]: 1.17%
- ERYTHROCYTE COUNT [1]: 5.7 x10E6/uL
- HEMATOCRIT [1]: 35.33%
- HEMOGLOBIN [1]: 13.97 G/DL
- LEUKOCYTE COUNT [1]: 15.17 x10E3/uL
- LYMPHOCYTE [1]: 89.83%
- MEAN CORPUSCULAR HEMOGLOBIN [1]: 24.53 pg
- MEAN CORPUSCULAR HEMOGLOBIN CONCENTRATION [1]: 39.53 G/DL
- MEAN CORPUSCULAR VOLUME [1]: 62.05 fL
- MONOCYTE [1]: 0.83%
- NEUTROPHIL [1]: 8.17%
- NUCLEATED RED BLOOD CELLS [1]: 0 /100WBC
- PLATELET COUNT [1]: 1312.17 x10E3/uL
- ALANINE AMINOTRANSFERASE [1]: 50.83 u/L
- ALKALINE PHOSPHATASE [1]: 334.17 u/L
- ASPARTATE AMINOTRANSFERASE [1]: 82.17 u/L
- BLOOD UREA NITROGEN [1]: 15.5 mg/dL
- CARBON DIOXIDE [1]: 31.33 mmol/L
- CHLORIDE [1]: 99.83 MEQ/L
- CHOLESTEROL [1]: 76 mg/dL
- CREATINE PHOSPHOKINASE [1]: 272.17 u/L
- CREATININE [1]: 0.17 mg/dL
- GLUCOSE [1]: 143 mg/dL
- LACTATE DEHYDROGENASE [1]: 157.5 u/L
- LIPASE [1]: 9.33 u/L
- PHOSPHORUS [1]: 12.18 mg/dL
- POTASSIUM [1]: 6.78 MEQ/L
- SODIUM [1]: 143.9 MEQ/L
- TOTAL BILIRUBIN [1]: 0.22 mg/dL
- TOTAL PROTEIN [1]: 5.85 G/DL
- URIC ACID [1]: 1.7 mg/dL
- ABSOLUTE BASOPHIL [2]: 0 CELLS/uL
- ABSOLUTE EOSINOPHIL [2]: 0 CELLS/uL
- ABSOLUTE LYMPHOCYTE [2]: 13539.33 CELLS/uL
- ABSOLUTE MONOCYTE [2]: 177.67 CELLS/uL
- ABSOLUTE SEGMENTED NEUTROPHIL [2]: 2116.33 CELLS/uL
- BASOPHIL [2]: 0%
- EOSINOPHIL [2]: 0%
- ERYTHROCYTE COUNT [2]: 5.78 x10E6/uL
- HEMATOCRIT [2]: 36.13%
- HEMOGLOBIN [2]: 14.1 G/DL
- LEUKOCYTE COUNT [2]: 15.83 x10E3/uL
- LYMPHOCYTE [2]: 85.83%
- MEAN CORPUSCULAR HEMOGLOBIN [2]: 24.42 pg
- MEAN CORPUSCULAR HEMOGLOBIN CONCENTRATION [2]: 39 G/DL
- MEAN CORPUSCULAR VOLUME [2]: 62.55 fL
- MONOCYTE [2]: 0.83%
- NEUTROPHIL [2]: 13.33%
- NUCLEATED RED BLOOD CELLS [2]: 0.17 /100WBC
- PLATELET COUNT [2]: 1281.17 x10E3/uL
- ALANINE AMINOTRANSFERASE [2]: 55.5 u/L
- ALKALINE PHOSPHATASE [2]: 345 u/L
- ASPARTATE AMINOTRANSFERASE [2]: 92.5 u/L
- BLOOD UREA NITROGEN [2]: 16.5 mg/dL
- CARBON DIOXIDE [2]: 26.5 mmol/L
- CHLORIDE [2]: 103.5 MEQ/L
- CHOLESTEROL [2]: 78.5 mg/dL
- CREATINE PHOSPHOKINASE [2]: 381.5 u/L
- CREATININE [2]: 0.21 mg/dL
- GLUCOSE [2]: 161.83 mg/dL
- LACTATE DEHYDROGENASE [2]: 487.5 u/L
- LIPASE [2]: 10.17 u/L
- PHOSPHORUS [2]: 11.83 mg/dL
- POTASSIUM [2]: 6.4 MEQ/L
- SODIUM [2]: 146.95 MEQ/L
- TOTAL BILIRUBIN [2]: 0.22 mg/dL
- TOTAL PROTEIN [2]: 6.22 G/DL
- URIC ACID [2]: 1.83 mg/dL
- ABSOLUTE BASOPHIL [3]: 0 CELLS/uL
- ABSOLUTE EOSINOPHIL [3]: 319 CELLS/uL
- ABSOLUTE LYMPHOCYTE [3]: 14175 CELLS/uL
- ABSOLUTE MONOCYTE [3]: 161.67 CELLS/uL
- ABSOLUTE SEGMENTED NEUTROPHIL [3]: 1511 CELLS/uL
- BASOPHIL [3]: 0%
- EOSINOPHIL [3]: 2%
- ERYTHROCYTE COUNT [3]: 5.5 x10E6/uL
- HEMATOCRIT [3]: 34.43%
- HEMOGLOBIN [3]: 13.03 G/DL
- LEUKOCYTE COUNT [3]: 16.17 x10E3/uL
- LYMPHOCYTE [3]: 87.67%
- MEAN CORPUSCULAR HEMOGLOBIN [3]: 23.7 pg
- MEAN CORPUSCULAR HEMOGLOBIN CONCENTRATION [3]: 37.87 G/DL
- MEAN CORPUSCULAR VOLUME [3]: 62.57 fL
- MONOCYTE [3]: 1%
- NEUTROPHIL [3]: 9.33%
- NUCLEATED RED BLOOD CELLS [3]: 0 /100WBC
- PLATELET COUNT [3]: 1231 x10E3/uL
- ALANINE AMINOTRANSFERASE [3]: 51.33 u/L
- ALKALINE PHOSPHATASE [3]: 320.67 u/L
- ASPARTATE AMINOTRANSFERASE [3]: 113 u/L
- BLOOD UREA NITROGEN [3]: 12.33 mg/dL
- CARBON DIOXIDE [3]: 28.33 mmol/L
- CHLORIDE [3]: 101.33 MEQ/L
- CHOLESTEROL [3]: 94 mg/dL
- CREATINE PHOSPHOKINASE [3]: 788.33 u/L
- CREATININE [3]: 0.2 mg/dL
- GLUCOSE [3]: 138.33 mg/dL
- LACTATE DEHYDROGENASE [3]: 1127.33 u/L
- LIPASE [3]: 9.67 u/L
- PHOSPHORUS [3]: 11.8 mg/dL
- POTASSIUM [3]: 6.43 MEQ/L
- SODIUM [3]: 144.43 MEQ/L
- TOTAL BILIRUBIN [3]: 0.2 mg/dL
- TOTAL PROTEIN [3]: 5.7 G/DL
- URIC ACID [3]: 1.63 mg/dL
- ABSOLUTE BASOPHIL [4]: 0 CELLS/uL
- ABSOLUTE EOSINOPHIL [4]: 162 CELLS/uL
- ABSOLUTE LYMPHOCYTE [4]: 12014 CELLS/uL
- ABSOLUTE MONOCYTE [4]: 120 CELLS/uL
- ABSOLUTE SEGMENTED NEUTROPHIL [4]: 1804 CELLS/uL
- BASOPHIL [4]: 0%
- EOSINOPHIL [4]: 1%
- ERYTHROCYTE COUNT [4]: 5.5 x10E6/uL
- HEMATOCRIT [4]: 34.77%
- HEMOGLOBIN [4]: 13.6 G/DL
- LEUKOCYTE COUNT [4]: 14.1 x10E3/uL
- LYMPHOCYTE [4]: 85.67%
- MEAN CORPUSCULAR HEMOGLOBIN [4]: 24.7 pg
- MEAN CORPUSCULAR HEMOGLOBIN CONCENTRATION [4]: 39.13 G/DL
- MEAN CORPUSCULAR VOLUME [4]: 63.2 fL
- MONOCYTE [4]: 1%
- NEUTROPHIL [4]: 12.33%
- NUCLEATED RED BLOOD CELLS [4]: 0 /100WBC
- PLATELET COUNT [4]: 1229 x10E3/uL
- ALANINE AMINOTRANSFERASE [4]: 56 u/L
- ALKALINE PHOSPHATASE [4]: 334.33 u/L
- ASPARTATE AMINOTRANSFERASE [4]: 113.67 u/L
- BLOOD UREA NITROGEN [4]: 15 mg/dL
- CARBON DIOXIDE [4]: 23.33 mmol/L
- CHLORIDE [4]: 103.33 MEQ/L
- CHOLESTEROL [4]: 77.33 mg/dL
- CREATINE PHOSPHOKINASE [4]: 1028.67 u/L
- CREATININE [4]: 0.23 mg/dL
- GLUCOSE [4]: 151.33 mg/dL
- LACTATE DEHYDROGENASE [4]: 644.67 u/L
- LIPASE [4]: 9 u/L
- PHOSPHORUS [4]: 11.9 mg/dL
- POTASSIUM [4]: 5.95 MEQ/L
- SODIUM [4]: 143.77 MEQ/L
- TOTAL BILIRUBIN [4]: 0.2 mg/dL
- TOTAL PROTEIN [4]: 5.97 G/DL
- URIC ACID [4]: 1.33 mg/dL
